Measurements: patent US4229204A, “Trifluoromethylphenyl isoxazolyl benzoates” (Monsanto Company, priority 1978, dated 1980)

How the values were obtained:
Type in all cases: in vivo
[1] = tested on: Lambsquarters; experiment: Pre-emergent herbicidal test; conditions: 4 WAT
Procedure: (§1) The pre-emergent test was conducted as follows:
(§2) A good grade of top soil was placed in aluminum pans and compacted to a depth of three-eighths to one-half inch from the top of the pan. On the top of the soil was placed a predetermined number of seeds or vegetative propagules of various plant species which were pressed into the soil surface. The soil required to level fill the pans after seeding or adding vegetative propagules was weighed into a pan. A known amount of the active ingredient applied in a solvent or as a wettable powder and the soil were thoroughly mixed, and used as a cover layer for prepared pans.
(§3) The herbicidal rating was obtained by means of a fixed scale based on the percent injury of each plant species. The ratings are defined as follows: […]
(§4) The compounds were also tested by utilizing the above procedure on the following plant species: […]

[2] = tested on: Cocklebur; experiment: Pre-emergent herbicidal test; conditions: 4 WAT
Procedure: as §1, §2, §3, §4

[3] = tested on: Yellow Nutsedge; experiment: Pre-emergent herbicidal test; conditions: 4 WAT, 11.2 kg/h
Procedure: as §1, §2, §3, §4

[4] = tested on: Quackgrass; experiment: Pre-emergent herbicidal test; conditions: 4 WAT, 11.2 kg/h
Procedure: as §1, §2, §3, §4

[5] = tested on: Canada Thistle; experiment: Pre-emergent herbicidal test; conditions: 4 WAT, 11.2 kg/h
Procedure: as §1, §2, §3, §4

[6] = tested on: Smartweed; experiment: Pre-emergent herbicidal test; conditions: 4 WAT
Procedure: as §1, §2, §3, §4

[7] = tested on: Downy Brome; experiment: Pre-emergent herbicidal test; conditions: 4 WAT
Procedure: as §1, §2, §3, §4

[8] = tested on: Barnyardgrass; experiment: Pre-emergent herbicidal test; conditions: 4 WAT
Procedure: as §1, §2, §3, §4

[9] = tested on: Velvetleaf; experiment: Pre-emergent herbicidal test; conditions: 4 WAT
Procedure: as §1, §2, §3, §4

[10] = tested on: Morningglory; experiment: Pre-emergent herbicidal test; conditions: 4 WAT
Procedure: as §1, §2, §3, §4

[11] = tested on: Johnsongrass; experiment: Pre-emergent herbicidal test; conditions: 4 WAT, 11.2 kg/h
Procedure: as §1, §2, §3, §4

[12] = tested on: Lambsquarters; experiment: Post-emergent herbicidal test; conditions: 4 WAT, 11.2 kg/h
Procedure: (§5) The post-emergent tests were conducted as follows:
(§6) The active ingredients are applied in spray form to two or three week old specimens of various plant species. The spray, a solution or wettable powder suspension containing the appropriate rate of active ingredient to give the desired test rate and a surfactant, is applied to the plants.
as §4

[13] = tested on: Cocklebur; experiment: Post-emergent herbicidal test; conditions: 4 WAT, 11.2 kg/h
Procedure: as §5, §6, §4

[14] = tested on: Yellow Nutsedge; experiment: Post-emergent herbicidal test; conditions: 4 WAT, 11.2 kg/h
Procedure: as §5, §6, §4

[15] = tested on: Quackgrass; experiment: Post-emergent herbicidal test; conditions: 4 WAT, 11.2 kg/h
Procedure: as §5, §6, §4

[16] = tested on: Canada Thistle; experiment: Post-emergent herbicidal test; conditions: 4 WAT, 11.2 kg/h
Procedure: as §5, §6, §4

[17] = tested on: Smartweed; experiment: Post-emergent herbicidal test; conditions: 4 WAT, 11.2 kg/h
Procedure: as §5, §6, §4

[18] = tested on: Downy Brome; experiment: Post-emergent herbicidal test; conditions: 4 WAT, 11.2 kg/h
Procedure: as §5, §6, §4

[19] = tested on: Barnyardgrass; experiment: Post-emergent herbicidal test; conditions: 4 WAT, 11.2 kg/h
Procedure: as §5, §6, §4

[20] = tested on: Velvetleaf; experiment: Post-emergent herbicidal test; conditions: 4 WAT, 11.2 kg/h
Procedure: as §5, §6, §4

[21] = tested on: Morningglory; experiment: Post-emergent herbicidal test; conditions: 4 WAT, 11.2 kg/h
Procedure: as §5, §6, §4

[22] = tested on: Johnsongrass; experiment: Post-emergent herbicidal test; conditions: 4 WAT, 11.2 kg/h
Procedure: as §5, §6, §4

[23] = tested on: Wheat; experiment: Pre-emergent herbicidal test; conditions: 4 WAT
Procedure: as §1, §2, §3

[24] = tested on: Sorghum; experiment: Pre-emergent herbicidal test; conditions: 4 WAT
Procedure: as §1, §2, §3

[25] = tested on: Crabgrass; experiment: Pre-emergent herbicidal test; conditions: 4 WAT
Procedure: as §1, §2, §3

[26] = tested on: Hemp Sesbania; experiment: Pre-emergent herbicidal test; conditions: 4 WAT
Procedure: as §1, §2, §3

[27] = tested on: Rice; experiment: Pre-emergent herbicidal test; conditions: 4 WAT
Procedure: as §1, §2, §3

[28] = tested on: Panicum Spp.; experiment: Pre-emergent herbicidal test; conditions: 4 WAT
Procedure: as §1, §2, §3

[29] = tested on: Soybean; experiment: Pre-emergent herbicidal test; conditions: 4 WAT
Procedure: as §1, §2, §3

[30] = tested on: Sugarbeet; experiment: Pre-emergent herbicidal test; conditions: 4 WAT
Procedure: as §1, §2, §3

[31] = tested on: Wild Buckwheat; experiment: Pre-emergent herbicidal test; conditions: 4 WAT
Procedure: as §1, §2, §3
Also: ranges in brackets are in %.

CCCCCOC(=O)c1ccccc1-c1cc(-c2cccc(C(F)(F)F)c2)no1 [Example 7, n-Pentyl 2-[3-[3-(Trifluoromethyl)Phenyl]-5-Isoxazolyl]Benzoate]
herbicidal rating ([1]; 0.28 kg/h): 1 (25-49)
herbicidal rating ([1]; 1.12 kg/h): 2 (50-74)
herbicidal rating ([1]; 5.60 kg/h): 2 (50-74)
herbicidal rating ([1]; 11.2 kg/h): 3 (75-100)
herbicidal rating ([2]; 0.28 kg/h): 0 (0-24)
herbicidal rating ([2]; 1.12 kg/h): 0 (0-24)
herbicidal rating ([2]; 5.60 kg/h): 1 (25-49)
herbicidal rating ([2]; 11.2 kg/h): 1 (25-49)
herbicidal rating [3]: 0 (0-24)
herbicidal rating [4]: 2 (50-74)
herbicidal rating [5]: 1 (25-49)
herbicidal rating ([6]; 0.28 kg/h): 0 (0-24)
herbicidal rating ([6]; 1.12 kg/h): 2 (50-74)
herbicidal rating ([6]; 5.60 kg/h): 2 (50-74)
herbicidal rating ([6]; 11.2 kg/h): 2 (50-74)
herbicidal rating ([7]; 0.28 kg/h): 2 (50-74)
herbicidal rating ([7]; 1.12 kg/h): 1 (25-49)
herbicidal rating ([7]; 5.60 kg/h): 2 (50-74)
herbicidal rating ([7]; 11.2 kg/h): 1 (25-49)
herbicidal rating ([8]; 0.28 kg/h): 2 (50-74)
herbicidal rating ([8]; 1.12 kg/h): 2 (50-74)
herbicidal rating ([8]; 5.60 kg/h): 3 (75-100)
herbicidal rating ([8]; 11.2 kg/h): 3 (75-100)
herbicidal rating ([9]; 0.28 kg/h): 0 (0-24)
herbicidal rating ([9]; 1.12 kg/h): 0 (0-24)
herbicidal rating ([9]; 5.60 kg/h): 1 (25-49)
herbicidal rating ([9]; 11.2 kg/h): 0 (0-24)
herbicidal rating ([10]; 0.28 kg/h): 0 (0-24)
herbicidal rating ([10]; 1.12 kg/h): 2 (50-74)
herbicidal rating ([10]; 5.60 kg/h): 2 (50-74)
herbicidal rating ([10]; 11.2 kg/h): 1 (25-49)
herbicidal rating [11]: 1 (25-49)
herbicidal rating [12]: 1 (25-49)
herbicidal rating [13]: 2 (50-74)
herbicidal rating [14]: 1 (25-49)
herbicidal rating [15]: 0 (0-24)
herbicidal rating [16]: 2 (50-74)
herbicidal rating [17]: 1 (25-49)
herbicidal rating [18]: 0 (0-24)
herbicidal rating [19]: 1 (25-49)
herbicidal rating [20]: 1 (25-49)
herbicidal rating [21]: 2 (50-74)
herbicidal rating [22]: 2 (50-74)
herbicidal rating ([23]; 0.28 kg/h): 0 (0-24)
herbicidal rating ([23]; 1.12 kg/h): 1 (25-49)
herbicidal rating ([23]; 5.60 kg/h): 1 (25-49)
herbicidal rating ([24]; 0.28 kg/h): 0 (0-24)
herbicidal rating ([24]; 1.12 kg/h): 1 (25-49)
herbicidal rating ([24]; 5.60 kg/h): 3 (75-100)
herbicidal rating ([25]; 0.28 kg/h): 0 (0-24)
herbicidal rating ([25]; 1.12 kg/h): 0 (0-24)
herbicidal rating ([25]; 5.60 kg/h): 3 (75-100)
herbicidal rating ([26]; 0.28 kg/h): 0 (0-24)
herbicidal rating ([26]; 1.12 kg/h): 1 (25-49)
herbicidal rating ([26]; 5.60 kg/h): 2 (50-74)
herbicidal rating ([27]; 0.28 kg/h): 1 (25-49)
herbicidal rating ([27]; 1.12 kg/h): 2 (50-74)
herbicidal rating ([27]; 5.60 kg/h): 3 (75-100)
herbicidal rating ([28]; 1.12 kg/h): 0 (0-24)
herbicidal rating ([28]; 5.60 kg/h): 2 (50-74)
herbicidal rating ([29]; 0.28 kg/h): 0 (0-24)
herbicidal rating ([29]; 1.12 kg/h): 0 (0-24)
herbicidal rating ([29]; 5.60 kg/h): 3 (75-100)
herbicidal rating ([30]; 0.28 kg/h): 3 (75-100)
herbicidal rating ([30]; 1.12 kg/h): 2 (50-74)
herbicidal rating ([30]; 5.60 kg/h): 2 (50-74)
herbicidal rating ([31]; 0.28 kg/h): 3 (75-100)
herbicidal rating ([31]; 1.12 kg/h): 2 (50-74)
herbicidal rating ([31]; 5.60 kg/h): 2 (50-74)
